# In patent US9301954B2, “Pharmaceutical composition for the prevention or treatment of osteoarthritis containing rebamipide as an active ingredient” (HANLIM PHARMACEUTICAL CO., LTD, priority 2010, dated 2016):
# Entries after “also recorded” stand apart in the source; their conditions may differ.
# Test system: MIA-induced osteoarthritis rats
# Assay: Therapeutic efficacy of oral rebamipide in monosodium iodoacetate (MIA)-induced osteoarthritis in rats
# Type: in vivo, Wistar rats
# Experimental: About 5 week old male Wistar rats were used. Monosodium iodoacetate (MIA) was dissolved in a physiological saline; and then administered to the rats in the dose of 4 mg/50 μl via the right knee thereof, so as to induce osteoarthritis. The rats were divided into 3 groups, each having 5 rats. The first group (non-arthritis) was a non-treated group, i.e., a normal control group. The second group (MIA) was an osteoarthritis-induced group through the MIA administration. The rats of the third group (MIA+Rebamipide) were administered with the MIA to induce osteoarthritis; and then orally administered with rebamipide every day for 7 days. At the 7th day after the MIA induction, the femurs and the tibias were isolated from the rats of each group and then observed under a dissecting microscope. After H&E staining, the knee joint sites were observed through a low-magnification lens. In the results, the nucleus is shown in blue-violet color and the cytoplasm is shown in pink color. […] The knee joints were stained with Safranin O, which can show losses of the cartilage proteoglycans. The tartrate-resistant acid phosphatase (TRAP) staining for osteoclasts, was performed at 37° C. for 30 minutes, using a leukocyte acid phosphatase kit (Sigma 387-A, USA). The TRAP-positive cells were shown in red-violet color. The multinucleated cells (having above 3 nuclei) were considered as TRAP-positive cells (osteoclasts), which were counted under an optical microscope.
compound,measurement,setting,value
O=C(NC(Cc1cc(=O)[nH]c2ccccc12)C(=O)O)c1ccc(Cl)cc1 (stereo not drawn) [rebamipide],Inflammation by H&E staining,"MIA+Rebamipide group in comparison with the MIA group, oral, 7 days",favorably changed
same,"Cartilage damage by histological analyses (TRAP, safranin O, H&E staining)","MIA+Rebamipide group vs MIA group, oral, 7 days",remained intact without destruction
same,"Safranin O staining of femoral cartilage site (proteoglycan loss, surface)","MIA+Rebamipide group, oral, 7 days, similar to the non-arthritis group",smooth and shown in strong orange-red color
same,Cartilage damage of isolated femurs and tibias observed under a dissecting microscope,"male Wistar rats, MIA 4 mg/50 μl via right knee, rebamipide orally every day for 7 days, 7th day after MIA induction",significantly inhibited; also recorded: little damages in the cartilage sites
same,Number of osteoclasts in the tibial subchondral bone via TRAP staining,"rebamipide group in comparison with the MIA group, oral, 7 days",significantly reduced
same,"Histology grade evaluation (standards of Table 1, FIG. 3): cartilage surface and safranin O loss","rebamipide-treated group, oral, 7 days",only a little loss of safranin O in the cartilage site
